Assay results reported in US20220151230A1, “SPECIFICALLY SUBSTITUTED 3-(2-HALOGEN-6-ALKYL-4-PROPINYLPHENYL)-3-PYRROLIN-2-ONES AND TO THE USE THEREOF AS HERBICIDES” (Bayer Aktiengesellschaft, priority 2019, published 2022).

Experiments:
[1] = tested on: ALOMY; assay: Post-emergence herbicidal effect against ALOMY; type: in vivo, Alopecurus myosuroides; conditions: one-leaf stage, 80 g/ha, assessed visually after about 3 weeks vs untreated controls, 100% = plants have died
Method: (§1) Seeds of monocotyledonous and dicotyledonous weed and crop plants are laid out in sandy loam soil in wood-fiber pots, covered with soil and cultivated in a greenhouse under good growth conditions. 2 to 3 weeks after sowing, the test plants are treated at the one-leaf stage. The compounds of the invention, formulated in the form of wettable powders (WP) or as emulsion concentrates (EC), are then sprayed onto the green parts of the plants as aqueous suspension or emulsion at a water application rate equating to 600 to 800 l/ha with addition of 0.2% wetting agent. After the test plants have been left to stand in the greenhouse under optimal growth conditions for about 3 weeks, the action of the preparations is assessed visually in comparison to untreated controls (herbicidal action in percent (%): 100% activity=the plants have died, 0% activity=like control plants).

[2] = tested on: ALOMY; assay: Pre-emergence herbicidal effect against ALOMY; type: in vivo, Alopecurus myosuroides; conditions: 320 g/ha, scored visually after 3 weeks vs untreated controls, 100% = plants have died
Text: (§2) Seeds of monocotyledonous and dicotyledonous weed plants and crop plants are laid out in sandy loam soil in wood-fiber pots and covered with soil. The compounds of the invention, formulated in the form of wettable powders (WP) or as emulsion concentrates (EC), are then applied to the surface of the covering soil as aqueous suspension or emulsion at a water application rate equating to 600 to 800 L/ha with addition of 0.2% wetting agent.
(§3) After the treatment, the pots are placed in a greenhouse and kept under good growth conditions for the trial plants. The damage to the test plants is scored visually after a test period of 3 weeks by comparison with untreated controls (herbicidal activity in percent (%): 100% activity=the plants have died, 0% activity=like control plants).

[3] = tested on: SETVI; assay: Post-emergence herbicidal effect against SETVI; type: in vivo, Setaria viridis; conditions: one-leaf stage, 80 g/ha, assessed visually after about 3 weeks vs untreated controls, 100% = plants have died
Method: as §1

[4] = tested on: SETVI; assay: Pre-emergence herbicidal effect against SETVI; type: in vivo, Setaria viridis; conditions: 320 g/ha, scored visually after 3 weeks vs untreated controls, 100% = plants have died
Text: as §2, §3

[5] = tested on: AVEFA; assay: Post-emergence herbicidal effect against AVEFA; type: in vivo, Avena fatua; conditions: one-leaf stage, 80 g/ha, assessed visually after about 3 weeks vs untreated controls, 100% = plants have died
Method: as §1

[6] = tested on: LOLRI; assay: Pre-emergence herbicidal effect against LOLRI; type: in vivo, Lolium rigidum; conditions: 320 g/ha, scored visually after 3 weeks vs untreated controls, 100% = plants have died
Text: as §2, §3

[7] = tested on: AVEFA; assay: Pre-emergence herbicidal effect against AVEFA; type: in vivo, Avena fatua; conditions: 320 g/ha, scored visually after 3 weeks vs untreated controls, 100% = plants have died
Text: as §2, §3

[8] = tested on: LOLRI; assay: Post-emergence herbicidal effect against LOLRI; type: in vivo, Lolium rigidum; conditions: one-leaf stage, 80 g/ha, assessed visually after about 3 weeks vs untreated controls, 100% = plants have died
Method: as §1

[9] = tested on: VIOTR; assay: Pre-emergence herbicidal effect against VIOTR; type: in vivo, Viola tricolor; conditions: 320 g/ha, scored visually after 3 weeks vs untreated controls, 100% = plants have died
Text: as §2, §3

[10] = tested on: ECHCG; assay: Post-emergence herbicidal effect against ECHCG; type: in vivo, Echinochloa crus-galli; conditions: one-leaf stage, 80 g/ha, assessed visually after about 3 weeks vs untreated controls, 100% = plants have died
Method: as §1

[11] = tested on: ECHCG; assay: Pre-emergence herbicidal effect against ECHCG; type: in vivo, Echinochloa crus-galli; conditions: 320 g/ha, scored visually after 3 weeks vs untreated controls, 100% = plants have died
Text: as §2, §3

[12] = tested on: DIGSA; assay: Pre-emergence herbicidal effect against DIGSA; type: in vivo, Digitaria sanguinalis; conditions: 320 g/ha, scored visually after 3 weeks vs untreated controls, 100% = plants have died
Text: as §2, §3

[13] = tested on: DIGSA; assay: Post-emergence herbicidal effect against DIGSA; type: in vivo, Digitaria sanguinalis; conditions: one-leaf stage, 80 g/ha, assessed visually after about 3 weeks vs untreated controls, 100% = plants have died
Method: as §1

SMILES | Post-emergence action [%] against ALOMY [1] [%] | Pre-emergence action [%] against ALOMY [2] [%] | Post-emergence action [%] against SETVI [3] [%] | Pre-emergence action [%] against SETVI [4] [%] | Post-emergence action [%] against AVEFA [5] [%] | Pre-emergence action [%] against LOLRI [6] [%] | Pre-emergence action [%] against AVEFA [7] [%] | Post-emergence action [%] against LOLRI [8] [%] | Pre-emergence action [%] against VIOTR [9] [%] | Post-emergence action [%] against ECHCG [10] [%] | Pre-emergence action [%] against ECHCG [11] [%] | Pre-emergence action [%] against DIGSA [12] [%] | Post-emergence action [%] against DIGSA [13] [%]
CC#Cc1cc(Cl)c(C2=C(O)C3(CCC(OC)CC3)NC2=O)c(C2CC2)c1 (stereo not drawn) [Example E24] | 100 | 100 | 100 | 100 | 100 | 100 | 100 | 100 | 100 | 100 | 100 | 100 | 
CC#Cc1cc(Br)c(C2=C(O)C3(CCC(OC)CC3)NC2=O)c(CC)c1 (stereo not drawn) [Example E25] | 90 |  | 90 |  |  |  |  |  | 80 |  |  |  | 
CC#Cc1cc(Br)c(C2=C(O)C3(CCC(OC)CC3)NC2=O)c(C2CC2)c1 (stereo not drawn) [Example E26] | 100 | 100 | 100 | 100 |  | 100 | 90 | 100 | 90 | 100 | 100 | 100 | 100
CC#Cc1cc(Cl)c(C2=C(OC(=O)OC)C3(CCC(OC)CC3)NC2=O)c(CC)c1 (stereo not drawn) [Example P24] | 100 | 100 | 100 | 100 | 90 | 100 | 100 |  |  | 100 | 90 | 100 | 90
CC#Cc1cc(C)c(C2=C(OC(=O)OCC)C3(CCCC(OCCOC)C3)NC2=O)c(Br)c1 (stereo not drawn) [Example Q4] | 100 | 100 | 100 | 100 | 90 | 100 | 100 | 100 |  | 100 | 100 | 100 | 
CC#Cc1cc(C)c(C2=C(OC(=O)OC)C3(CCCC(OCC(C)C)C3)NC2=O)c(Cl)c1 (stereo not drawn) [Example Q6] | 100 | 100 | 100 | 100 | 100 | 100 | 90 | 100 |  | 100 | 100 | 100 | 100
CC#Cc1cc(C)c(C2=C(OC(=O)OCC)C3(CCCC(OCC(C)C)C3)NC2=O)c(Cl)c1 (stereo not drawn) [Example Q8] | 100 | 100 | 100 | 100 | 100 | 100 | 100 | 90 |  | 100 | 100 | 100 | 
